≈ marks a conversion by molar mass, not a printed value.

The nature of series [1]: Effect on biochemical parameters in mice serum. The settings on record: single i.p. 12 mg/kg, blood after 7 days; for Albumin / Bilirubin / Cholestrol / Creatinine / Globulin / Total Lipids / Triglycerides / Alanine amino transferase ALT / Alkaline phosphatase ALP / Aspartate amino transferase AST: Mean + S.D.; for Alanine amino transferase ALT / Alkaline phosphatase ALP / Aspartate amino transferase AST: 12 mg/kg. It counts as in vivo. From the text: Male albino mice, weighing 18-20 g each, were used in a study. The mice were divided into three main groups, as follows. Group 1 is the untreated control group (5 mice); Group 2 is divided into two subgroups (5 mice in each subgroup), treated with either 5-FU (5-Fluorouracil) or DOX (Doxorubicin) as reference anticancer drugs. Group 3 is divided into ten subgroups (5 mice for each subgroup) and treated with the present substituted naphthyridinyl hydrazine compounds. The mice were housed in wide cages and well aerated rooms, and fed standard diets and clean water. Blood collection from the animals was done with heparinized cannula, and the mice were left alive.
For treatment, in Group 1, each mouse was given a single intraperitoneal (i.p.) injection of 0.1 mL DMSO; in Group 2, each mouse was given a single i.p. injection of 0.1 mL containing 12 mg/kg body weight of 5-FU or DOX dissolved in sterile water; and in Group 3, each mouse was given a single intraperitoneal injection of 0.1 mL containing 12 mg/kg body weight of the selected furan derivatives dissolved in 0.01% DMSO. Blood was collected after 7 days from all mouse groups.
The biochemical effects of formula 1 compounds on some liver enzymes in mouse blood serum was studied. Effects on aspartate and alanine aminotransferases (AST and ALT), and alkaline phosphatase (ALP), were examined using a blood auto analyzer, Olympus AV 400, Japan. Moreover, albumin, globulins, creatinine, total lipids, cholesterol, triglycerides, and bilirubin were evaluated, in comparison to treatment using 5-FU or DOX. Statistical analysis of the results was performed using Chi-square values (SPSS computer program).

The next series has as its system HepG2 (Liver). Put plainly: MTT cell proliferation and viability assay on liver HEPG2 cancer cell line. In kind it is cell-based. The settings on record: Homo sapiens, 48 hours, read-out: IC50 cytotoxic activity. As for the experimental part:
In the following examples, human cancer cell line HepG2 (Liver) was grown in DMEM media supplemented with 10% bovine serum, 1× penicillin-streptomycin (Sigma-Aldrich) at 37° C. in a humidified chamber with 5% CO2. 5-Flurourasil (Sigma-Aldrich) was used as the reference drug (standard).
Cells were seeded (1×10^5 cells/well in triplicate) in a 96-well flat-bottom plate (Becton-Dickinson Lab ware) a day before treatment and grown. Stocks of all extracts/compounds (1.0 mg/ml) were made with 5% DMSO (Sigma-Aldrich), and further working solutions (100 μg/ml) were prepared in serum-free culture media. Cells were treated with four different doses (2, 6.2, 12.5, and 25 μg/ml; in triplicate) of the compounds in complete growth media, including reference drug, and further incubated for 48 hours.
On day 2 of treatment, cell proliferation and viability test was performed using TACS MTT Cell Proliferation and Viability Assay Kit (TACS), as per manufacturer's instructions. The relationship between surviving fraction and compound concentration was plotted to obtain the survival curve of cancer cell lines. The response parameter calculated was the IC50 value, which corresponds to the concentration required for 50% inhibition of cell viability.

The test system of series [2] is various human cancer cell lines. Kind of series: Single-dose screening against a variety of human cancer cell lines. It counts as cell-based. Conditions: leukemia, non-small cell lung, colon, CNS, melanoma, ovarian, renal, prostate, breast cancer cell lines. From the text: FIGS. 5A and 5B are a chart showing results of single-dose screening for various human cancer cell lines treated with compound 6 (a substituted naphthyridinyl hydrazine according to the present invention).

The test system of a further series is HepG2 cells. Put plainly: Phase contrast microscopy of morphological changes in HepG2 cells. It counts as cell-based, human. Conditions: for Morphological changes of HepG2 cells: 10 μg. As for the experimental part: The cells were seeded in 6-well plates and allowed to adhere at 37° C. in a CO2 incubator. After 24 h, each well was treated with 10 μg compound and incubated for the indicated time. After 24 and 48 hrs, the cells were imaged by phase contrast microscope (Olympus CLX 41) to visualize morphological changes in HepG2 cells.
A. The cells were seeded in 6-well plates and allowed to adhere at 37° C. in CO2 incubator. After 24 h, each well was treated with 10 μg of compound 6 and incubated for the indicated time. After 24 and 48 hrs, the cells were imaged by phase contrast microscope (Olympus CLX 41) to visualize morphological changes in HepG2 cells.
A. Change in HepG2 cells after treatment with compound 6 was studied for morphological variations using the phase contrast microscopy.
Many characteristic features occur in cells undergoing a series of biochemical events during apoptosis. Various morphological changes, such as blebbing, loss of membrane asymmetry, cell shrinkage, nuclear fragmentation, chromatin condensation, and chromosomal DNA fragmentation occur.

The subject of the next series is HeLa cells. Kind of series: Phase contrast microscopy of morphological changes in HeLa cells. It counts as cell-based. The settings on record: after 12 and 24 hrs. As for the experimental part: B. Similar studies were done with HeLa cells. Cells were seeded in 6-well plates and allowed to adhere at 37° C. in CO2 incubator. After 24 h, each well was treated with 4.6 μM 2,6P-OLA and incubated for the indicated time. After 12 and 24 h, the cells were imaged by phase contrast microscope (Olympus CLX 41) to visualize morphological changes in HeLa cells.
B. Change in LeLa cells after treatment with compound 6 was also studied for morphological variations using the phase contrast microscopy.

Take `O=c1[nH]cc(F)c(=O)[nH]1` [Compound 5-FU, 5-Fluorouracil]: in series [1], the A/G ratio amounted to 1.13, the Albumin was 6.49 ± 0.92 mg/d1, the Bilirubin is 0.75 ± 0.10 mg/dL and the Cholestrol amounted to 105.9 ± 11.7 mg/dL. In series [1], the Creatinine turned out to be 0.81 ± 0.06 mg/dL, the Globulin worked out at 5.75 ± 0.8 mg/dL, the “Total Lipids” value is 378.2 ± 31.4 mg/dL and the Triglycerides stood at 126.5 ± 19.4 mg/dL. The IC50 in the series with HepG2 (Liver) stood at 5 µg/mL (≈ 38.4 µM).

In turn, `Cc1ccc2c(N/N=C/c3ccccc3[N+](=O)[O-])cc(C)nc2n1` [Compound 6, (E)-2-(2-Nitrobenzylidene)-1-(2,7-dimethyl-1,8-naphthyridin-5-yl)hydrazine] returned a melting point of 255 to 256 °C. Moreover, in series [1], the A/G ratio is recorded as 1.23, the Albumin came out at 7.73 ± 0.52 mg/d1, the Bilirubin was 0.76 ± 0.15 mg/dL and the Cholestrol stood at 93.24 ± 19.53 mg/dL. In series [1], the Creatinine amounted to 0.71 ± 0.21 mg/dL, the Globulin is 6.25 ± 0.82 mg/dL, the “Total Lipids” value was found to be 326.32 ± 19.3 mg/dL and the Triglycerides was 110.54 ± 17.8 mg/dL. In series [1], the “Alanine amino transferase ALT” value was determined as 46.09 ± 6.13 IU/ml, the “Alkaline phosphatase ALP” value amounted to 21.59 ± 3.42 k.k./dl and the “Aspartate amino transferase AST” value was determined as 112.81 ± 9.88 IU/ml. In series [1] (listed as new compound), the “Alanine amino transferase ALT” value is “non-significant (n.s.) or slightly higher”, the “Alkaline phosphatase ALP” value is reported as “no significant changes” and the “Aspartate amino transferase AST” value was “non-significant (n.s.) or slightly higher”. The half-maximal inhibitory concentration (IC50) in the series with HepG2 (Liver) was 0.885 µg/mL (≈ 2.75 µM). In addition, in series [2], the “Cancer cell growth in single-dose screening” value is “significant decreases in cancer cell growth”. In addition, the “Morphological changes of HepG2 cells” value in the series on HepG2 cells (24 hours, FIG. 7B) is “onset of apoptotic characteristics”. Also, the “Morphological changes of HepG2 cells” value with HepG2 cells (48 hours, FIG. 7C) was “blebbing and loss of basal attachment and membrane asymmetry is markedly seen”. Moreover, the “Morphological variations of HepG2 cells” value in the series with HepG2 cells (after 24 and 48 hrs, phase contrast microscopy) was “Changes in surface morphology”. Moreover, in the series with HeLa cells, the “Morphological variations of HeLa cells” value was “Changes in surface morphology were observed”.

The molecule `Cc1ccc2c(N/N=C3\C(=O)Nc4ccccc43)cc(C)nc2n1` [Compound 8b, (3Z)-3-[2-(2,7-Dimethyl-1,8-naphthyridin-4-yl)hydrazinylidene]-1,3-dihydro-2H-indol-2-one] showed a melting point of over 300 °C.

Consider `Cc1ccc2c(N/N=C3\C(=O)Nc4ccc(Cl)cc43)cc(C)nc2n1` [Compound 8c, (3Z)-5-Chloro-3-[2-(2,7-dimethyl-1,8-naphthyridin-4-yl)hydrazinylidene]-1,3-dihydro-2H-indol-2-one], for which the melting point was over 300 °C.

With `COc1cccc2c1C(=O)c1c(O)c3c(c(O)c1C2=O)C[C@@](O)(C(=O)CO)C[C@@H]3O[C@H]1C[C@H](N)[C@H](O)[C@H](C)O1` [Doxorubicin], in series [1], the A/G ratio worked out at 1.078, the Albumin was found to be 6.37 ± 0.85 mg/d1, the Bilirubin is 0.81 ± 0.19 mg/dL and the Cholestrol was 109.3 ± 14.2 mg/dL. Further, in series [1], the Creatinine is 0.78 ± 0.04 mg/dL, the Globulin turned out to be 5.91 ± 0.63 mg/dL, the “Total Lipids” value was 21.94 ± 3.4 mg/dL and the Triglycerides is 137.8 ± 17.10 mg/dL. Besides, in series [1], the “Alanine amino transferase ALT” value is listed as 59.26 ± 12.03 IU/ml, the “Alkaline phosphatase ALP” value is reported as 30.31 ± 5.14 k.k./dl and the “Aspartate amino transferase AST” value was 147.22 IU/ml. Besides, in series [1] (listed as DOX), the “Alanine amino transferase ALT” value is on record as “significantly higher”, the “Alkaline phosphatase ALP” value is recorded as “significantly increased” and the “Aspartate amino transferase AST” value is “significantly higher”. For the same molecule, in the series with HepG2 (Liver), the IC50 came out at 3.56 µg/mL (≈ 6.55 µM).

As a reminder, the IC50 is the concentration at which inhibition is half-maximal. One may read the melting point as the temperature of the solid-liquid transition.

The record behind these values is US9855255B1, “Substituted naphthyridinyl hydrazines as anti-liver cancer agents” (KING SAUD UNIVERSITY, priority 2017, dated 2018).
